The nature of data set [1]: LC/MS/MS analysis of LPA and PA in human plasma after oral PA (Example 8). Conditions: in vivo. From the text:
Lyso-phosphatidic acid (LPA) and phosphatidic acid (PA) from human plasma includes a physical distribution of molecules varying in their fatty acids esterified to the sn-1 and sn-2 positions of glycerol-3-phosphate. The differences in polarity among the fatty acid substituted structures provide a means to resolve individual species under reversed phase chromatographic conditions. This analysis coupled with selective mass spectrometric detection based on molecular weight and distinctive fragmentation for LPA and PA compounds provided the basis for quantitation in the samples described herein. Total LPA and PA content are measured as the sum of the individual species measured.
Human plasma of a subject was analyzed after administration of lyso-phosphatidic acid and phosphatidic acid. One subject consumed 2 g of PA in form of Mediator® (Chemi Nutra). The data from the study provided the composition and concentration of PA and lyso-PA in human blood plasma as a baseline value, and changes in PA and lyso-PA concentrations after 30 minutes, 1 hour, 2 hours, 3 hours and 7 hours. It was determined that PA administration results in increases in lyso-PA and PA concentrations in human blood plasma.
An ultra performance liquid chromatograph with triple quadrupole mass spectrometry (LC/MS/MS) method was utilized to measure the content of LPA and PA molecular species in human plasma. A Waters Acquity™ Ultra-performance liquid chromatography system coupled with an AB Sciex 5500 tandem quadrupole mass spectrometer was the instrumentation platform.
Column: Agilent, Eclipse™ XDB-C8 4.6×150 mm, 1.8 μm, sn. USHAN01857, pn. 927975-906. Flow=1 mL/minute at 40° C. Mobile phases: A=70:28.5:1.5 (/v) methanol:water:acetic acid with 0.08% TEA/v;
The identified molecular species were detected using a multiple reaction monitoring (MRM) technique for the -ve mode exact mass of [M-H]^− and the corresponding fragment 153 amu. […]
The content of each molecular species was calculated from the internal standards present in each sample extract. […]

Data set [2] deals with known non-responder to creatine supplementation. Kind of data set: Creatine non-responder Subject A (RJ): body weight and total strength, two-week strength training program. The format is in vivo, human. Conditions: subject one. As for the experimental part:
patient one, 198 cm tall, a known non-responder to creatine supplementation, followed a two-week strength training program while testing whether supplementation with PA-enriched-phospholipid improves creatine response. Total starting body weight and strength were measured on day one, followed by the training program, consisting of concentric and eccentric isotonic lifting exercises that worked the upper and lower body muscle groups. Either free weights or weight machines were used once or twice weekly. Strength training was performed three times per week with at least one day of rest between sessions, which alternated between lower and upper body exercises. During the two-week period, a total of six training sessions (three upper and three lower) were performed. Each exercise included two sets of ten repetitions at 30% and 60% 1RM, followed by two sets of 3 to 5 repetitions at 90% 1RM. The lower body exercise included seven different exercises: seated leg press, leg curls, standing calf raises, leg extensions, inclined leg lift, inverted situps (back extension) and 45° inclined situps. The upper body exercise consisted of seven different exercises: bench press, latissimus pulldown, triceps pulldown, inclined dumbbell curls, seated preacher curls, seated rows, and CyBec Pec Fly. Total upper body weight and lower body weight lifted were calculated as the average weight lifted during the last three sets multiplied by the average repetition in each set. Total strength was determined as the combined lower and upper total weight lifted. Total body weight was determined after day 8 and day 15. Strength was measured on days 1 and 15. A four-week rest period followed the first two-week training program. The same program was repeated twice, the control was supplementation of creatine monohydrate (Creapure, Alzchem, Germany) 4 times 5 grams per day for five days of loading, followed by nine days of five grams creatine monohydrate. During the second program, creatine monohydrate was given as for the control program with the addition of PA-enriched phospholipid (Chemi Nutra, White Bear Lake, Minn.) which was about 50% PA.

Data set [3] shares this test system. As to the kind of experiment: Creatine non-responder Subject B (MP): body weight and total strength, three-week strength training program. The format is in vivo, human. Conditions: subject two. As to the method:
patient two, 185 cm tall, also a known non-responder to creatine supplementation, followed a three-week strength training program while testing whether supplementation with PA-enriched-phospholipid improves creatine response. Total starting total body weight and strength were measured on day one, followed by the training program, consisting of concentric and eccentric isotonic lifting exercises that worked the upper and lower body muscle groups with either free weights or weight machines used once or twice weekly. Strength training was performed three times per week with at least one day of rest between sessions, which alternated between lower and upper body exercises. During the three-week period, a total of 10 training sessions (five upper body and five lower body) were performed. Each exercise included two sets of ten repetitions at 40% and 65% 1RM, followed by two sets of 3 to 5 repetitions at 90% 1RM.
The lower body exercise included seven different exercises: seated leg press, leg curls, standing calf raises, leg extension, inclined leg lift, inverted situps (back extension) and 45° inclined situps. The upper body exercise consisted of seven different exercises: bench press, latissimus pulldown, triceps pulldown, inclined dumbbell curls, seated preacher curls, seated rows, and CyBec Pec Fly. Total upper body and lower body weight lifted were calculated as the average weight lifted during the last three sets multiplied by the average repetition in each set. Total strength was determined as the combined lower and upper total weight lifted. […] Strength was measured on days 1 and 22.
A four-week rest period followed the first three-week training program. The same program was repeated twice, the control was supplemented with creatine monohydrate (Creapure®, Alzchem, Germany), 5 grams per day of five grams creatine monohydrate for 21 days. During the second program, creatine monohydrate was given as for the control program with the addition of 1 gram per day PA-enriched phospholipid (Chemi Nutra, White Bear Lake, Minn.), which contained about 50% PA.

`CCCCCCCCCCCCCC(=O)OC[C@@H](O)COP(=O)(O)O` [14:0 LPA]: the “plasma concentration, Time 0 @10 AM” value in data set [1] was 13.00 nM.

On to `CCCCCCCCCCCCCCCC(=O)OCC(O)COP(=O)(O)O` (centres unmarked) [16:0 LPA], for which the “plasma concentration, Time 0 @10 AM” value in data set [1] came to 51.33 nM.

Take `CCCCCCCCCCCCCCCCCC(=O)OC[C@@H](O)COP(=O)(O)O` [18:0 LPA]: the “plasma concentration, Time 0 @10 AM” value in data set [1] was determined as 0.00 nM.

As to `CN(CC(=O)O)C(=N)N` [Creatine Supplement, N-methyl-N-guanyl glycine], the results for the “body weight, day 1” value in data set [2] (day 1) and in data set [3] (day 1) were 88.8 kg and 81.9 kg, respectively. Also, the “increase in total strength (total weight lifted)” value in data set [2] (day 1 to day 15) and in data set [3] (day 1 to day 22) was 5% in each case. The “body weight, day 8” value in data set [2] (day 8) worked out at 88.3 kg. For the same compound, the “body weight, day 15” value in data set [2] (day 15) stood at 88.0 kg. Also, the “body weight, day 10” value in data set [3] (day 10) worked out at 81.5 kg. In data set [3] (day 22), the “body weight, day 22” value was found to be 81.2 kg.

Source of the values: US20130338114A1, “COMPOSITIONS FOR INCREASING STRENGTH, MUSCLE MASS, AND LEAN BODY MASS” (Chemi Nutra, priority 2012, published 2013).
